The molecules below were run against T1, human CaMKIIδ (Homo sapiens, UniProt Q13557) (assay: Evaluation of in vitro CaMKII inhibitory activity (binding assay, TR-FRET)). Settings: human CaMKIIδ, TR-FRET binding assay; class symbols A/B/C; read-out: Act (CaMKII inhibitory activity, binding assay).
T1 construct: Full-length, glutathione-S-transferase(GST)-tagged, human CaMKIIδ was purchased from Carna Biosciences; purchased Carna Biosciences (CaMKIIδ); Wako Pure Chemical Industries (calmodulin) 02-111
How it was run: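 Inhibitors, in eight concentrations of 4-fold dilution, were incubated 1 h at room temperature with a protein–fluorescent probe premix preformed 30 min on ice, containing calmodulin and terbium anti-GST antibody. Displacement read by TR-FRET in duplicate; IC50 by logistic fitting.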

| Compound | IC50 [nM] |
| --- | --- |
| C[C@@H](Cn1cnnn1)Oc1cc(-c2ccn3ncc(-c4cccc(F)c4C#N)c3n2)ccc1F [compound 154] | < 10 |
| C[C@@H](Cn1cnnn1)Oc1cc(-c2ccc3ncc(-c4cc(C#N)cn(C)c4=O)n3n2)ccc1F [compound 221] | < 10 |
| CC(C)Oc1cccc(-c2cnc3ccc(-c4ccc(F)c(O[C@@H](C)Cn5cnnn5)c4)nn23)c1C#N [compound 213] | < 10 |
| C[C@@H](Cn1cnnn1)Oc1cccc(-c2ccn3ncc(-c4ccc(N5CCOCC5)cc4)c3n2)c1 [compound 15] | 10 to 100 |
| C[C@@H](Cn1cnnn1)Oc1cc(-c2ccn3ncc(-c4cccc(C(=O)N5CCC(N6CCOCC6)CC5)c4)c3n2)ccc1F [compound 10] | < 10 |
| C[C@@H](Cn1cnnn1)Oc1cc(-c2ccn3ncc(-c4cccc(CN(C)C)c4)c3n2)ccc1F [compound 40] | < 10 |
| C[C@@H](Cn1cnnn1)Oc1cc(-c2ccc3ncc(-c4cccn(C)c4=O)n3n2)ccc1F [compound 196] | < 10 |
| C[C@@H](Cn1cnnn1)Oc1cc(-c2ccn3ncc(-c4cc[nH]n4)c3n2)ccc1F [compound 158] | < 10 |
| CCN(CC)CCNC(=O)c1cccc(-c2cnn3ccc(-c4cccc(O[C@@H](C)Cn5cnnn5)c4)nc23)c1 [compound 103] | < 10 |
| C[C@@H](Cn1cnnn1)Oc1cc(-c2ccn3ncc(-c4ccccn4)c3n2)ccc1F [compound 4] | < 10 |
| C[C@@H](Cn1cnnn1)Oc1cccc(-c2ccn3ncc(-c4cccc(C(=O)NCCc5ccccn5)c4)c3n2)c1 [compound 106] | < 10 |
| COC1CN(C(=O)c2cccc(-n3cnc4ccc(-c5ccc(F)c(O[C@@H](C)Cn6cnnn6)c5)nc43)c2C#N)C1 [compound 229, 2-[5-(4-fluoro-3-{[(2S)-1-(1H-tetrazol-1-yl)propan-2-yl]oxy}phenyl)-3H-imidazo[4,5-b]pyridin-3-yl]-6-(3-methoxyazetidine-1-carbonyl)benzonitrile] | 10 to 100 |
| C[C@@H](Cn1cnnn1)Oc1cc(-c2ccn3ncc(-c4ccc(C(F)F)cc4)c3n2)ccc1F [compound 132] | 10 to 100 |
| COC(=O)c1cccc(-c2cnn3ccc(-c4ccc(F)c(O[C@@H](C)Cn5cnnn5)c4)nc23)c1 [compound 6] | < 10 |
| C[C@@H](Cn1cnnn1)Oc1cc(-c2ccn3ncc(-c4ccoc4)c3n2)ccc1F [compound 19] | < 10 |
| C[C@@H](Cn1cnnn1)Oc1cc(-c2ccn3ncc(-c4ccc(C#N)cc4)c3n2)ccc1F [compound 136] | 10 to 100 |
| CC(=O)N(C)CCOc1cccc(-c2cnc3ccc(-c4ccc(F)c(O[C@@H](C)Cn5cnnn5)c4)nn23)c1C#N [compound 205] | < 10 |

| Compound | IC50 [nM] |
| --- | --- |
| COc1ccnc(-c2cnn3ccc(-c4ccc(F)c(O[C@@H](C)Cn5cnnn5)c4)nc23)c1 [compound 140] | 10 to 100 |
| C[C@@H](Cn1cnnn1)Oc1cc(-c2ccn3ncc(-c4cnn(C)c4)c3n2)ccc1F [compound 23] | < 10 |
| COCCOc1ccccc1-c1cnn2ccc(-c3ccc(F)c(O[C@@H](C)Cn4cnnn4)c3)nc12 [compound 43] | < 10 |
| C[C@@H](Cn1cnnn1)Oc1cc(-c2ccn3ncc(-c4ccc(N5CCOCC5)cc4)c3n2)ccc1F [compound 49] | 10 to 100 |
| C[C@@H](Cn1cnnn1)Oc1cccc(-c2ccn3ncc(-c4cccc(C(=O)NC5CN(Cc6ccccc6)C5)c4)c3n2)c1 [compound 86] | < 10 |
| C[C@@H](Cn1cnnn1)Oc1cc(-c2ccn3ncc(-c4ccsc4C#N)c3n2)ccc1F [compound 162] | < 10 |
| COC(=O)c1cccc(-n2cnc3ccc(-c4ccc(F)c(O[C@@H](C)Cn5cnnn5)c4)nc32)c1 [compound 13] | < 10 |
| COC(=O)c1cccc(-n2cnc3ccc(-c4ccc(F)c(O[C@@H](C)Cn5cnnn5)c4)nc32)n1 [compound 188] | < 10 |
| C[C@@H](Cn1cnnn1)Oc1cccc(-c2ccn3ncc(-c4cccc(C(=O)NCC(C)(C)O)c4)c3n2)c1 [compound 80] | < 10 |
| C[C@@H](Cn1cnnn1)Oc1cccc(-c2ccn3ncc(-c4cccc(C(=O)Nc5cnn(C)c5)c4)c3n2)c1 [compound 85] | < 10 |
| COCCN1C(=O)c2cccc(-n3cnc4ccc(-c5ccc(F)c(O[C@@H](C)Cn6cnnn6)c5)nc43)c2C1=O [compound 192] | > 100 |
| C[C@@H](Cn1cnnn1)Oc1cc(-c2ccc3ncc(-c4cn(CC(=O)NCCN5CCOCC5)nc4C#N)n3n2)ccc1F [compound 127] | > 100 |
| C[C@@H](Cn1cnnn1)Oc1cccc(-c2ccn3ncc(-c4cccc(C(=O)NC5CC(=O)N(C)C5)c4)c3n2)c1 (stereo partly drawn) [compound 97, N-(1-methyl-5-oxopyrrolidin-3-yl)-3-[5-(3-{[(2S)-1-(1H-tetrazol-1-yl)propan-2-yl]oxy}phenyl)pyrazolo[1,5-a]pyrimidin-3-yl]benzamide] | < 10 |
| C[C@@H](Cn1cnnn1)Oc1cc(-c2ccc3ncn(-c4cccc(C(=O)N(C)C)c4C#N)c3n2)ccc1F [compound 228] | > 100 |
| C[C@@H](Cn1cnnn1)Oc1cc(-c2ccc3ncc(-c4ccccn4)n3n2)ccc1F [compound 227, 2-[6-(4-fluoro-3-{[(2S)-1-(1H-tetrazol-1-yl)propan-2-yl]oxy}phenyl)imidazo[1,2-b]pyridazin-3-yl]pyridine] | < 10 |
| COCCCNC(=O)c1cccc(-c2cnn3ccc(-c4ccc(F)c(O[C@@H](C)Cn5cnnn5)c4)nc23)c1 [compound 9] | < 10 |

Same assay, conditions: in vitro CaMKII inhibitory activity (binding assay), human CaMKIIδ; read-out: Act

| Compound | IC50 [nM] |
| --- | --- |
| C[C@@H](Cn1cnnn1)Oc1cccc(-c2ccc3ncc(-c4cc(Cl)c[nH]c4=O)n3n2)c1 [compound 328] | < 10 |
| COc1cc(F)cc(-n2cnc3ccc(-c4ccc(F)c(O[C@@H](C)Cn5cnnn5)n4)nc32)c1C#N [compound 439] | < 10 |
| C[C@@H](Cn1cnnn1)Oc1cc(-c2ccc3ncc(-c4cc(N=S(C)(C)=O)ccc4C#N)n3n2)ccc1F [compound 263] | > 100 |
| COc1ccnc(-c2cnc3ccc(-c4ccc(F)c(O[C@@H](C)Cn5cnnn5)c4)nn23)c1C#N [Example 321, 2-[6-(4-fluoro-3-{[(2S)-1-(1H-tetrazol-1-yl)propan-2-yl]oxy}phenyl)imidazo[1,2-b]pyridazin-3-yl]-4-methoxypyridine-3-carbonitrile] | < 10 |
| C[C@@H](Cn1cnnn1)Oc1cc(-c2ccc3ncc(-c4c[n+]([O-])ccc4C#N)n3n2)ccc1F [Example 269, (S)-3-(6-(3-((1-(1H-tetrazol-1-yl)propan-2-yl)oxy)-4-fluorophenyl)imidazo[1,2-b]pyridazin-3-yl)-4-cyanopyridine N-oxide] | < 10 |
| C[C@@H](Cn1cnnn1)Oc1cccc(-c2ccc3ncc(-c4c[n+]([O-])ccc4C#N)n3n2)c1 [compound 276] | < 10 |
| C[C@@H](Cn1cnnn1)Oc1cccc(-c2ccc3nnc(-c4ncccc4C#N)n3n2)c1 [compound 391] | > 100 |
| CC(O)c1ccc(C#N)c(-c2cnc3ccc(-c4cccc(O[C@@H](C)Cn5cnnn5)c4)nn23)n1 (stereo partly shown) [compound 390] | < 10 |
| CCOc1ccnc(-n2cnc3ccc(-c4ccnc(O[C@@H](C)Cn5cnnn5)c4)nc32)c1C#N [compound 375] | 10 to 100 |
| C[C@@H](Cn1cnnn1)Oc1nc(-c2ccc3ncc(-c4cc(F)ccc4C#N)n3n2)ccc1F [compound 449] | < 10 |
| COCc1cc(F)cc(-c2cnc3ccc(-c4cccc(O[C@@H](C)Cn5cnnn5)n4)nn23)c1C#N [compound 462] | < 10 |
| COc1ccnc(-c2c(F)nn3ccc(-c4cccc(O[C@@H](C)Cn5cnnn5)c4)nc23)c1C#N [compound 377] | 10 to 100 |
| C[C@@H](Cn1cnnn1)Oc1ccc(F)c(-c2ccc3ncc(-c4ncccc4C#N)n3n2)c1 [compound 293] | 10 to 100 |
| C[C@@H](Cn1cnnn1)Oc1cc(-c2ccc3ncc(-c4ccc(=O)n(C)c4C#N)n3n2)ccc1F [compound 256] | > 100 |
| C[C@@H](Cn1cnnn1)Oc1nccc(-c2ccc3ncn(-c4cc(F)ccc4C#N)c3n2)n1 [Example 342, 4-fluoro-2-[5-(2-{[(2S)-1-(1H-tetrazol-1-yl)propan-2-yl]oxy}pyrimidin-4-yl)-3H-imidazo[4,5-b]pyridin-3-yl]benzonitrile] | 10 to 100 |
| C[C@@H](Cn1cnnn1)Oc1cccc(-c2ccc3ncc(-c4cc(F)c(F)cc4C#N)n3n2)n1 [compound 433] | < 10 |
| COc1ncc(Cl)cc1-c1cnc2ccc(-c3cccc(O[C@@H](C)Cn4cnnn4)c3)nn12 [compound 323] | < 10 |
| C[C@@H](Cn1cnnn1)Oc1cccc(-c2ccc3ncc(-c4cccnc4C#N)n3n2)c1 [compound 257, 3-[6-(3-{[(2S)-1-(1H-tetrazol-1-yl)propan-2-yl]oxy}phenyl)imidazo[1,2-b]pyridazin-3-yl]pyridine-2-carbonitrile] | < 10 |
| C[C@@H](Cn1cnnn1)Oc1cc(-c2ccc3ncc(-c4ccc(=O)[nH]c4C#N)n3n2)ccc1F [compound 255] | < 10 |
| C[C@@H](Cn1cnnn1)Oc1cccc(-c2ccc3ncc(-c4cc(F)ccc4C#N)n3n2)n1 [Example 325, 4-fluoro-2-[6-(6-{[(2S)-1-(1H-tetrazol-1-yl)propan-2-yl]oxy}pyridin-2-yl)imidazo[1,2-b]pyridazin-3-yl]benzonitrile] | < 10 |
| COc1cc(-c2cnc3ccc(-c4ccc(F)c(O[C@@H](C)Cn5cnnn5)c4)nn23)c(C#N)cn1 [compound 240] | < 10 |
| COc1ccnc(-c2cnn3ccc(-c4cccc(O[C@@H](C)Cn5cnnn5)n4)nc23)c1C#N [compound 430] | > 100 |
| CCOc1nccc(-c2cnc3ccc(-c4cccc(O[C@@H](C)Cn5cnnn5)c4)nn23)c1C#N [compound 261] | < 10 |
| C[C@@H](Cn1cnnn1)Oc1cccc(-c2ccc3ncc(-c4cc(F)cc(F)c4C#N)n3n2)n1 [compound 421] | < 10 |
| C[C@@H](Cn1cnnn1)Oc1cccc(-c2ccc3ncc(-c4cc(Cl)cn(C)c4=O)n3n2)c1 [compound 334] | < 10 |

Source: US12528816B2, “Substituted imidazo [1,2-b] pyridazines and [1, 2, 4] triazolo [ 4,3-b] pyridazines as camkii inhibitors” (Cardurion Pharmaceuticals, INC., priority 2020, dated 2026)
